Measurements taken from patent US10495630B2, “Methods for the determination of compounds or compositions for the treatment of lipofuscin related diseases and compounds or compositions” (KATAIRO GMBH, priority 2014, dated 2019).
Read-outs that look alike come from different tables or passages of the source.

Key:
Abca4 (−/−) mice = experiment: A2E concentration in eyes of Abca4 (−/−) mice after intravitreal injection, HPLCMSMS; assay type: in vivo; settings: for response vs control in vivo at 20000 µg/mL / response vs control in vivo at 40000 µg/mL: Mus musculus, 168 h, read-out: % of A2E relative to age matched untreated
From the text: […] […] The left eye was not treated and maintained as a control. Untreated eyes of age-matched mice lacking the Abca4 transporter were an additional control.
The concentration in each treated eye was then expressed as a percentage of the average concentration in all untreated eyes in the mice of the same age.
The left eye was not treated and maintained as a control. Untreated eyes of age-matched mice lacking the Abca4 transporter were an additional control.
The left eye was not treated and maintained as a control. Untreated eyes of age-matched mice lacking the Abca4 transporter were an additional control. […] Tryptophan is capable of absorbing and re-radiating light energy, as is riboflavin.
Water solutions were diluted 1:3 with acetonitrile and then sealed in vials for injection. 6 μL of the water acetonitrile solutions were injected onto a 2×50 mm Phenyl derived HPLC column (3 μm) and eluted with a gradient from 20% acetonitrile to 100% acetonitrile over 4 minutes at a flow rate of 500 μL/minute.

melanin A2E particles = experiment: Assay for binding to A2E melanin particles; parameters: species or system S. officinalis; settings: FIG. 3A; 37° C., 4 h
Protocol: To study the binding of A2E to melanin, a suspension of 2 mg/ml natural melanin (S. officinalis) is prepared in PBS, pH 7.4. The melanin suspension is brought to 37° C. and sonicated for 15 min to form a uniform suspension. The melanin suspension (0.75 ml) is measured in aliquots into glass test tubes (12×75 mm) under continuous shaking to avoid sedimentation. The solution of A2E (0.75 ml) is added to the above-mentioned melanin aliquots, and the tubes will be incubated in a shaker incubator at 37° C. and 300 rpm for 4 h.
Controls are prepared by incubating A2E in the absence of melanin in incubation medium and by incubating melanin without A2E. Compounds are added to melanin suspension from stock solutions. After incubation, the suspensions are centrifuged at 13,000 rpm for 15 min at room temperature to remove the melanin granules. The supernatant is collected, diluted with acetonitrile and analyzed by an LC-MS/MS method to determine the concentration of […] in the supernatant. The kinetic parameters of binding study, i.e., maximal binding capacity (rmax) and the binding affinity (k) are determined for A2E according to the previously reported method (Cheruvu et al., 2008).
A high percentage of soraprazan and demethoxysoraprazan—about 46% and about 53%, respectively—are found bound to the melanin A2E particles.

[1] = tested on: human retinal pigment epithelium (RPE) cells; experiment: Degradation of lipofuscin in human RPE cells (micrographs after one week); assay type: cell-based; settings: one week incubation
Protocol: To explore the role of the reactive chemical species the human retinal pigment epithelium (RPE) cells were treated with the super oxide anion donor (SAD) soraprazan ((7R,8R,9R)-2,3-Dimethyl-8-hydroxy-7-ethoxy-9-phenyl-7,8,9,10-tetrahydro-imidazo-[1,2-h][1,7]-naphthyridin)—a member of the THPE family—either alone or in combination with a known radical oxygen scavenger, cardioxane.
After growing the hRPE-cells to confluence, the test compounds were added to seven cell cultures and the cells were incubated at 37° C. and 5% CO2. The SAD was added to the cell cultures in a concentration of 50 μg/ml either alone or in combination with cardioxane in a concentration of 10 μM, 50 μM or 100 μM. Additionally, three cell cultures were incubated only with cardioxane in a concentration of 10 μM, 50 μM or 100 μM. As control, one cell culture was grown without test compounds.
After one week of incubation micrographs of the differently incubated RPE cells were taken as shown in FIG. 2A to H. In the original images, lipofuscin in cells is visible as a yellow-gold-orange fluorescent structure, before a blue background. In the grey scale reproduction in FIG. 2 the yellow-gold-orange structure appear light grey (yellow) or dark grey (gold-orange) before a grey background. Areas of degradation of lipofuscin in the hRPE cells appears as bright blue to whitish structures which appear white in the in the grey scale reproduction and are circled in FIG. 2A.
The bright blue structures are only observed in the experimental set up with SAD alone (FIG. 2A).

[2] = dyes and porphyrins, intravitreal 2 μl of 20 mg/ml, one week after injection
[3] = redox active and chelating protein, intravitreal 2 μl of 20 mg/ml, one week after injection
[4] = amino acids or metabolites, intravitreal 2 μl of 40 mg/ml, one week after injection
[5] = tetracycline antibiotics, intravitreal 2 μl of 20 mg/ml, one week after injection
[6] = quinolones, intravitreal 2 μl of 20 mg/ml, one week after injection
[7] = redox active small molecules and chelator, intravitreal 2 μl of 20 mg/ml, 16 hours after injection
[8] = chelators or metal interactors, intravitreal 2 μl of 40 mg/ml or concentration as indicated, one week after injection
[9] = permeability agents, intravitreal 2 μl of 40 mg/ml or concentration as indicated in the table, one week after injection

O=C([O-])c1c(Cl)c(Cl)c(Cl)c(Cl)c1-c1c2cc(I)c(=O)c(I)c-2oc2c(I)c([O-])c(I)cc12.[Na+].[Na+] [Rose bengal]
% of A2E relative to age matched untreated (Abca4 (−/−) mice; [2]): 85%
Concentration A2E (μM) in the treated eye (Abca4 (−/−) mice; [2]): 16 µM

Cytochrome C: redox active electron carrier protein used as a model peroxidase
% of A2E relative to age matched untreated (Abca4 (−/−) mice; [3]): 81%
Concentration A2E (μM) in the treated eye (Abca4 (−/−) mice; [3]): 18 µM

O=C1/C(=C2\Nc3ccc(S(=O)(=O)[O-])cc3C2=O)Nc2ccc(S(=O)(=O)[O-])cc21.[Na+].[Na+] [Indigocarmine]
% of A2E relative to age matched untreated (Abca4 (−/−) mice; [2]): 98%
Concentration A2E (μM) in the treated eye (Abca4 (−/−) mice; [2]): 22 µM

C=C[C@H]1C[N@@]2CC[C@H]1C[C@H]2[C@H](O)c1ccnc2ccc(OC)cc12 [Quinine]
response vs control in vivo at 20000 µg/mL (Abca4 (−/−) mice; [2]): 81%
Concentration A2E (μM) in the treated eye (Abca4 (−/−) mice; [2]): 17 µM

N[C@@H](Cc1c[nH]c2ccccc12)C(=O)O [Tryptophan]
response vs control in vivo at 40000 µg/mL (Abca4 (−/−) mice; [4]): 66%
Concentration A2E (μM) in the treated eye (Abca4 (−/−) mice; [4]): 13 µM

C[C@H]1c2cccc(O)c2C(=O)C2=C(O)[C@]3(O)C(=O)C(C(N)=O)=C(O)[C@@H](N(C)C)[C@@H]3[C@@H](O)[C@@H]21 [Doxycycline]
response vs control in vivo at 20000 µg/mL (Abca4 (−/−) mice; [5]): 81%
Concentration A2E (μM) in the treated eye (Abca4 (−/−) mice; [5]): 28 µM

R/S-demethoxysoraprazan
Proportion of compound bound to the melanin A2E particles after incubation (melanin A2E particles): bind to the A2E melanin particles although to a lower percentage

Transferrin (apo): protein capable of binding iron with high affinity
% of A2E relative to age matched untreated (Abca4 (−/−) mice; [3]): 82%
Concentration A2E (μM) in the treated eye (Abca4 (−/−) mice; [3]): 15 µM

N[C@@H](CCC(=O)N[C@@H](CS)C(=O)NCC(=O)O)C(=O)O [Glutathione]
response vs control in vivo at 40000 µg/mL (Abca4 (−/−) mice; [4]): 89%
Concentration A2E (μM) in the treated eye (Abca4 (−/−) mice; [4]): 35 µM

CN1CCN(c2c(F)cc3c(=O)c(C(=O)O)cn(CCF)c3c2F)CC1 [Fleroxacin]
response vs control in vivo at 20000 µg/mL (Abca4 (−/−) mice; [6]): 74%
Concentration A2E (μM) in the treated eye (Abca4 (−/−) mice; [6]): 24 µM

demethoxysoraprazan
Proportion of compound bound to the melanin A2E particles after incubation (melanin A2E particles): about 53%

C[C@@H]1CC[C@H]2[C@@H](C)C(=O)O[C@@H]3O[C@@]4(C)CC[C@@H]1[C@]32OO4 [Artemesinin]
% of A2E relative to age matched untreated (Abca4 (−/−) mice; [7]): 75%
Concentration A2E (μM) in the treated eye (Abca4 (−/−) mice; [7]): 38 µM

Cc1cc2nc3c(=O)[nH]c(=O)nc-3n(C[C@H](O)[C@H](O)[C@H](O)CO)c2cc1C [Riboflavin]
response vs control in vivo at 40000 µg/mL (Abca4 (−/−) mice; [4]): 91%
Concentration A2E (μM) in the treated eye (Abca4 (−/−) mice; [4]): 19 µM

CN(C)c1ccc(O)c2c1C[C@H]1C[C@H]3[C@H](N(C)C)C(O)=C(C(N)=O)C(=O)[C@@]3(O)C(O)=C1C2=O [Minocycline]
response vs control in vivo at 20000 µg/mL (Abca4 (−/−) mice; [5]): 100%
Concentration A2E (μM) in the treated eye (Abca4 (−/−) mice; [5]): 33 µM

c1ccc2c(c1)Nc1ccccc1S2 [Phenothiazine]
response vs control in vivo at 20000 µg/mL (Abca4 (−/−) mice): 85%
Concentration A2E (μM) in the treated eye (Abca4 (−/−) mice; [2]): 27 µM

O=C(N[C@H](CO)[C@H](O)c1ccc([N+](=O)[O-])cc1)C(Cl)Cl [Chloramphenicol]
response vs control in vivo at 20000 µg/mL (Abca4 (−/−) mice; [5]): 70%
Concentration A2E (μM) in the treated eye (Abca4 (−/−) mice; [5]): 24 µM

CCn1cc(C(=O)O)c(=O)c2cc(F)c(N3CCNCC3)cc21 [Norfloxacin]
response vs control in vivo at 20000 µg/mL (Abca4 (−/−) mice; [6]): 106%
Concentration A2E (μM) in the treated eye (Abca4 (−/−) mice; [6]): 36 µM

O=C1OC2(c3ccc(O)cc3Oc3cc(O)ccc32)c2ccccc21 [Fluoroscein]
response vs control in vivo at 20000 µg/mL (Abca4 (−/−) mice; [2]): 85%
Concentration A2E (μM) in the treated eye (Abca4 (−/−) mice; [2]): 20 µM

CC1(C)C(/C=C/C=C/C=C/C=C2\N(CCCCS(=O)(=O)O)c3ccc4ccccc4c3C2(C)C)=[N+](CCCCS(=O)(=O)[O-])c2ccc3ccccc3c21 [Indocyanine green]
response vs control in vivo at 20000 µg/mL (Abca4 (−/−) mice; [2]): 66%
Concentration A2E (μM) in the treated eye (Abca4 (−/−) mice; [2]): 20 µM

CN(C)c1ccc(C(=C2C=CC(=[N+](C)C)C=C2)c2ccc(N(C)C)cc2)cc1 [Crystal violet]
response vs control in vivo at 20000 µg/mL (Abca4 (−/−) mice; [2]): 71%
Concentration A2E (μM) in the treated eye (Abca4 (−/−) mice; [2]): 23 µM

c1cnc2c(c1)ccc1cccnc12 [1,10-phenanthroline]
response vs control in vivo at 40000 µg/mL (Abca4 (−/−) mice; [8]): 91%
Concentration A2E (μM) in the treated eye (Abca4 (−/−) mice; [8]): 20 µM

N[C@@H](CS)C(=O)O [Cysteine]
response vs control in vivo at 40000 µg/mL (Abca4 (−/−) mice; [4]): 59%
Concentration A2E (μM) in the treated eye (Abca4 (−/−) mice; [4]): 12 µM
% of A2E relative to age matched untreated (Abca4 (−/−) mice; [8]): 59%
Concentration A2E (μM) in the treated eye (Abca4 (−/−) mice; [8]): 12 µM

Cyclodextrin
% of A2E relative to age matched untreated (Abca4 (−/−) mice; [9]): 83%
Concentration A2E (μM) in the treated eye (Abca4 (−/−) mice; [9]): 20 µM

c1ccc2c(c1)-c1nc-2nc2[nH]c(nc3nc(nc4[nH]c(n1)c1ccccc41)-c1ccccc1-3)c1ccccc21 [Phthalocyanine]
% of A2E relative to age matched untreated (Abca4 (−/−) mice; [2]): 142%
Concentration A2E (μM) in the treated eye (Abca4 (−/−) mice; [2]): 31 µM

C[C@@H](CN1CC(=O)NC(=O)C1)N1CC(=O)NC(=O)C1 [cardioxane]
Effect on the lipofuscin degradation seen with SAD ([1]; cardioxane 10, 50 or 100 μM added to SAD 50 μg/ml): abolishes the degradation of lipofuscin
Degradation / removal of lipofuscin in hRPE cells ([1]; test compound alone (SAD 50 μg/ml; cardioxane 10, 50 or 100 μM)): do not show any degradation of lipofuscin

Cc1cc2nc3c(=O)[nH]c(=O)nc-3n(C[C@H](O)[C@H](O)[C@H](O)COP(=O)(O)OP(=O)(O)OC[C@H]3O[C@@H](n4cnc5c(N)ncnc54)[C@H](O)[C@@H]3O)c2cc1C [FAD]
% of A2E relative to age matched untreated (Abca4 (−/−) mice; [2]): 99%
Concentration A2E (μM) in the treated eye (Abca4 (−/−) mice; [2]): 23 µM

C[C@@H]1CN(c2c(F)c(N)c3c(=O)c(C(=O)O)cn(C4CC4)c3c2F)C[C@H](C)N1 [Sparfloxacin]
response vs control in vivo at 20000 µg/mL (Abca4 (−/−) mice; [6]): 99%
Concentration A2E (μM) in the treated eye (Abca4 (−/−) mice; [6]): 36 µM
